We go through 23 compounds from patent US8748426B2, “Inhibitors of diacylglycerol acyl transferase” (Piramal Enterprises Limited, priority 2009, dated 2014).

The inhibition is how much of the control response was suppressed.

The subject of one assay is Swiss mice. As to the kind of experiment: Fat tolerance test (ftt) in mice. The class given is in vivo. Conditions: 3 mg/kg, p.o.; olive oil load 10 mL/kg 30 min after treatment; AUC0-4h, vehicle group as 100%. The protocol: Swiss mice of age 4-5 weeks and body weight between 25-30 g were selected for study. After fasting for about 16 h, the animals were divided into three groups based on plasma triglyceride level with same mean and variation. Animals were administered with either vehicle [(1% tween 80 in 0.5% carboxy methylcellulose (CMC)]) or with compounds of the present invention (3 mg/kg, p.o.). Compounds of the present invention were prepared as suspension in 0.5% carboxy methylcellulose (CMC) with 1% tween 80. Olive oil (fat) load (10 mL/kg, p.o.) was given, 30 min after the treatment. Blood samples were collected at 1, 2, 3 and 4 h after the fat (olive oil) load. Plasma was separated and triglyceride level was measured using commercially available kits (diasys, Germany). Percentage reduction in area under curve (AUC0-4h) of the test compound was calculated by taking AUC0-4h of the vehicle group as 100%.
Take `CCCCCc1ccc(C(=O)Nc2ccc(-c3ccc4c(c3)C(=O)N([C@H](C(=O)O)C(C)C)C4)cc2)cc1` [Example 124, (S)-3-Methyl-2-(1-oxo-6-(4-(4-pentylbenzamido)phenyl)isoindolin-2-yl)butanoic acid]: the “% Reduction (Plasma triglyceride)” value is recorded as “++ (>50% Reduction)”. Same read-out and setting: next, `CC(C)[C@@H](C(=O)O)N1Cc2ccc(-c3ccc(NC(=O)c4ccc5ccccc5c4)cn3)cc2C1=O` [Example 410, (S)-2-(6-(5-(2-Naphthamido)pyridin-2-yl)-1-oxoisoindolin-2-yl)-3-methylbutanoic acid]: “++ (>50% Reduction)”.

As for `CC(C)[C@@H](C(=O)O)N1Cc2ccc(-c3ccc(NC(=O)c4ccc(-c5ccccc5)cc4)cc3)cc2C1=O` [Example 120, (S)-2-(6-(4-Biphenyl-4-ylcarboxamidophenyl)-1-oxoisoindolin-2-yl)-3-methyl butanoic acid], the “% Reduction (Plasma triglyceride)” value is listed as “++ (>50% Reduction)”.

A further assay concerns the target T1, hDGAT1 (Homo sapiens, UniProt O75907).
T1 sequence (O75907 1-488): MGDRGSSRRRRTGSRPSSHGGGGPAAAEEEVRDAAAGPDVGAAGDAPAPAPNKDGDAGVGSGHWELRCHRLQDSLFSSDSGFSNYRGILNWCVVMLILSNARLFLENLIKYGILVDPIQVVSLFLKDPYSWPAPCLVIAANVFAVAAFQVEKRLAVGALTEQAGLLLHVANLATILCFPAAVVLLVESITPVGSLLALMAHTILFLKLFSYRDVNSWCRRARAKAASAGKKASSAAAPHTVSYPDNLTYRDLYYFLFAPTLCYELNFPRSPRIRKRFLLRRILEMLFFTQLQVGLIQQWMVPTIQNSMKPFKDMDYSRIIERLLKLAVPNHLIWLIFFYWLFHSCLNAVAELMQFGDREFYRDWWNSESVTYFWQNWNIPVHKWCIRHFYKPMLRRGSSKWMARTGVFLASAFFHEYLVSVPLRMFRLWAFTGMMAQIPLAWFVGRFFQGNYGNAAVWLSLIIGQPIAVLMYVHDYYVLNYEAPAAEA
Briefly: In-vitro DGAT1 assay (14C oleoyl CoA, hDGAT1 microsomes from Sf9 cells). Conditions: at 1 μM.
`CC(C)[C@@H](C(=O)O)N1Cc2ccc(-c3ccc(NC(=O)c4ccc(-c5ccccc5)cc4)cc3)cc2C1=O` [Example 120, (S)-2-(6-(4-Biphenyl-4-ylcarboxamidophenyl)-1-oxoisoindolin-2-yl)-3-methyl butanoic acid]: the “% Inhibition of hDGAT1” value was “++ (>50% Inhibition)”. Same read-out and setting: then `COc1cc(NC(=O)c2ccc(-c3ccccc3)cc2)ccc1-c1ccc2c(c1)C(=O)N([C@H](C(=O)O)C(C)C)C2` [Example 458, (S)-2-(6-(4-Biphenyl-4-ylcarboxamido-2-methoxyphenyl)-1-oxoisoindolin-2-yl)-3-methylbutanoic acid], with “++ (>50% Inhibition)”. On the same count and under the same terms, then `CC(C)(C(=O)O)N1Cc2ccc(-c3ccc(NC(=O)c4ccc(-c5ccccc5)cc4)cc3)cc2C1=O` [Example 517, 2-(6-(4-([1,1′-Biphenyl]-4-ylcarboxamido)phenyl)-1-oxoisoindolin-2-yl)-2-methyl propanoic acid], with “++ (>50% Inhibition)”.

The same assay, now with this note: read-out: % Inhibition of hDGAT1.
For the compound `CCCCCc1ccc(C(=O)Nc2ccc(-c3ccc4c(c3)C(=O)N([C@H](C(=O)O)C(C)C)C4)cc2)cc1` [Example 124, (S)-3-Methyl-2-(1-oxo-6-(4-(4-pentylbenzamido)phenyl)isoindolin-2-yl)butanoic acid], the inhibition at 1 µM was greater than 50%. In the case of `CC(C)[C@@H](C(=O)O)N1Cc2ccc(-c3ccc(NC(=O)c4ccc5ccccc5c4)cn3)cc2C1=O` [Example 410, (S)-2-(6-(5-(2-Naphthamido)pyridin-2-yl)-1-oxoisoindolin-2-yl)-3-methylbutanoic acid], the inhibition at 1 µM is greater than 50%. Still for that read-out and setting: then `CC(C)[C@@H](C(=O)O)N1Cc2ccc(-c3ccc(NC(=O)Nc4cccc(C#N)c4)cc3)cc2C1=O` [Example 42, (S)-2-(6-(4-(3-(3-Cyanophenyl)ureido)phenyl)-1-oxoisoindolin-2-yl)-3-methyl butanoic acid], with greater than 50%.

On to `CC(C)C[C@@H](C(=O)O)N1Cc2cc(-c3ccc(NC(=O)Nc4cccc(C(F)(F)F)c4)cc3)ccc2C1=O` [Example 388, (S)-4-Methyl-2-(1-oxo-5-(4-(3-(3-(trifluoromethyl)phenyl)ureido)phenyl)isoindolin-2-yl)pentanoic acid], for which the inhibition at 1 µM lay in the range of 10 to 50%. Take `CC(C)[C@@H](C(=O)O)N1Cc2ccc(-c3ccc(NC(=O)c4ccc(C(C)(C)C)cc4)cn3)cc2C1=O` [Example 404, (S)-2-(6-(5-(4-tert-Butylbenzamido)pyridin-2-yl)-1-oxoisoindolin-2-yl)-3-methyl butanoic acid]: the inhibition at 1 µM is greater than 50%.

Take `CC(C)[C@@H](C(=O)O)N1Cc2ccc(-c3ccc(NC(=O)c4ncc(-c5ccccc5)s4)cc3)cc2C1=O` [Example 612, (S)-3-Methyl-2-(1-oxo-6-(4-(5-phenylthiazole-2-carboxamido)phenyl)isoindolin-2-yl)butanoic acid]: the inhibition at 1 µM was greater than 50%. On the same count and under the same terms, next, `CC(C)[C@@H](C(=O)O)N1Cc2ccc(-c3ccc(NC(=O)Nc4ccccc4)cc3)cc2C1=O` [Example 16, (S)-3-Methyl-2-(1-oxo-6-(4-(3-phenylureido)phenyl)isoindolin-2-yl)butanoic acid]: 10 to 50%.

Take `CC(C)[C@@H](C(=O)O)N1Cc2ccc(-c3ccc(NC(=O)c4ccc(C(C)(C)C)cc4)cc3Cl)cc2C1=O` [Example 480, (S)-2-(6-(4-(4-tert-Butylbenzamido)-2-chlorophenyl)-1-oxoisoindolin-2-yl)-3-methylbutanoic acid]: the inhibition at 1 µM was greater than 50%. The same measure, in the same setting: next, `COc1ccc(C(=O)Nc2ccc(-c3ccc4c(c3)CN([C@H](C(=O)O)C(C)C)C4=O)cc2)cc1` [Example 311, (S)-2-(5-(4-(4-Methoxybenzamido)phenyl)-1-oxoisoindolin-2-yl)-3-methyl butanoic acid]: 10 to 50%. In the case of `CCCCCCCCCc1ccc(C(=O)Nc2ccc(-c3ccc4c(c3)C(=O)N([C@H](C(=O)O)C(C)C)C4)cc2)cc1` [Example 186, (S)-3-Methyl-2-(6-(4-(4-nonylbenzamido)phenyl)-1-oxoisoindolin-2-yl)butanoic acid], the inhibition at 1 µM was greater than 50%.

With `CC(C)[C@@H](C(=O)O)N1Cc2ccc(-c3ccc(NC(=O)c4cc(-c5ccc(F)cc5)no4)cn3)cc2C1=O` [Example 639, (S)-2-(6-(5-(3-(4-Fluorophenyl)isoxazole-5-carboxamido)pyridin-2-yl)-1-oxoisoindolin-2-yl)-3-methylbutanoic acid], the inhibition at 1 µM is greater than 50%. On the same count and under the same terms, next, `CC(C)[C@@H](C(=O)O)N1Cc2cc(-c3ccc(NC(=O)Nc4ccc(F)c(F)c4)cc3)ccc2C1=O` [Example 239, (S)-2-(5-(4-(3-(3,4-Difluorophenyl)ureido)phenyl)-1-oxoisoindolin-2-yl)-3-methylbutanoic acid]: greater than 50%; `CC(C)[C@@H](C(=O)O)N1Cc2ccc(-c3ccc(NC(=O)c4ccc5c(c4)OCO5)cc3)cc2C1=O` [Example 128, (S)-2-(6-(4-(Benzo[d][1,3]dioxole-5-carboxamido)phenyl)-1-oxoisoindolin-2-yl)-3-methylbutanoic acid]: greater than 50%. Turning to `CC(C)[C@@H](C(=O)O)N1Cc2ccc(-c3ccc(NC(=O)Nc4ccc(Oc5ccccc5)cc4)cc3)cc2C1=O` [Example 50, (S)-3-Methyl-2-(1-oxo-6-(4-(3-(4-phenoxyphenyl)ureido)phenyl)isoindolin-2-yl)butanoic acid], the inhibition at 1 µM was greater than 50%. For `CC(C)[C@@H](C(=O)O)N1Cc2ccc(-c3ccc(NC(=O)Nc4ccccc4Cl)c(F)c3)cc2C1=O` [Example 442, (S)-2-(6-(4-(3-(2-Chlorophenyl)ureido)-3-fluorophenyl)-1-oxoisoindolin-2-yl)-3-methylbutanoic acid], the inhibition at 1 µM was greater than 50%. For `COc1ccc(S(=O)(=O)Nc2ccc(-c3ccc4c(c3)C(=O)N([C@H](C(=O)O)C(C)C)C4)cc2)cc1` [Example 90, (S)-2-(6-(4-(4-Methoxyphenylsulfonamido)phenyl)-1-oxoisoindolin-2-yl)-3-methylbutanoic acid], the inhibition at 1 µM was 10 to 50%. On the same count and under the same terms, next, `CC(C)[C@@H](C(=O)O)N1Cc2ccc(-c3ccc(NC(=O)c4cccc(F)c4)cc3)cc2C1=O` [Example 106, (S)-2-(6-(4-(3-Fluorobenzamido)phenyl)-1-oxoisoindolin-2-yl)-3-methylbutanoic acid]: greater than 50%; `CC(C)[C@@H](C(=O)O)N1Cc2ccc(-c3ccc(NC(=O)c4ccc(-c5nccs5)cc4)cc3)cc2C1=O` [Example 647, (S)-3-Methyl-2-(1-oxo-6-(4-(4-(thiazol-2-yl)benzamido)phenyl)isoindolin-2-yl)butanoic acid]: greater than 50%. The same measure, in the same setting: then `CC(C)[C@@H](C(=O)O)N1Cc2ccc(-c3ccc(NC(=O)c4ccc(C(C)(C)C)cc4)c(F)c3)cc2C1=O` [Example 444, (S)-2-(6-(4-(4-tert-Butylbenzamido)-3-fluorophenyl)-1-oxoisoindolin-2-yl)-3-methylbutanoic acid], with greater than 50%; and `CC(C)[C@@H](C(=O)O)N1Cc2ccc(-c3ccc(NC(=S)Nc4ccc(Cl)cc4)cc3)cc2C1=O` [Example 62, (S)-2-(6-(4-(3-(4-Chlorophenyl)thioureido)phenyl)-1-oxoisoindolin-2-yl)-3-methyl butanoic acid], with 10 to 50%.
